Assay results taken from paper PMC9299836 (eLife, 2022).
Values joined by “and” are separate entries in the source; they are usually repeats but may differ in a detail not shown here. Equal entries are not always repeated.

Key:
mGluR2 [1] = molecular target: T1, mGluR2 (Mus musculus, UniProt Q14BI2); test: Live-cell FRET, SNAP-m2 (VFT domain) inter-subunit sensor in HEK293T cells; conditions: for Mean normalized FRET response, SNAP-m2 NAM DRC: glutamate + 10μM modulator, maximal response normalized to 1mM glutamate;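 for all read-outs here: apparent FRET efficiency from whole-membrane ROIs of single cells, corrected for donor bleed-through and background, ΔFRET as treatment minus pretreatment signal, recorded at room temperature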
mGluR2 [2] = molecular target: mGluR2 (Mus musculus, UniProt Q14BI2, INS715F); test: Live-cell FRET, azi-ECL2 (7TM domain, extracellular loop 2) sensor in HEK293T cells; conditions: for Mean normalized azi-ECL2 FRET response: glutamate + 10μM modulator, maximal response normalized to 1mM glutamate;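 for all read-outs here: Cy3/Cy5 click-labeled sensor, whole-membrane ROIs per cell, apparent FRET after bleed-through correction, ΔFRET as treatment minus pre-treatment signal, at room temperature, at least three biological replicates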
mGluR2 [3] = molecular target: mGluR2 (Mus musculus, UniProt Q14BI2, A548F); test: Live-cell FRET, azi-CRD (cysteine-rich domain) sensor in HEK293T cells; conditions: for azi-CRD normalized FRET response, Mean / azi-CRD normalized FRET response, individual cell: Glutamate + 10μM modulator (NAM); for azi-CRD normalized FRET response, Mean: maximal response normalized to 1mM glutamate; for azi-CRD normalized FRET response, individual cell: single-cell replicate
mGluR2 [4] = molecular target: T1, mGluR2; test: Functional calcium imaging, SNAP-mGluR2 (no FLAG-tag) with chimeric G protein Gqo5 in HEK293T cells; format: cell-based; design: Full length mGluR2 construct with an amber codon (TAG) mutation of amino acid A548 (azi-CRD) or N-terminal SNAP-tag (SNAP-mGluR2); host or cells: HEK293T; conditions: for Intracellular Ca2+ Response (normalized to 1mM glutamate), Mean: Glutamate + 90nM Ro 64-5229
[5] = 10μM Ro 64-5229, ([1 mM glutamate + modulator] - [1 mM glutamate]) × 100

Sequence of mGluR2 (Mus musculus, UniProt Q14BI2, A548F) (Q14BI2 19-872 A548F): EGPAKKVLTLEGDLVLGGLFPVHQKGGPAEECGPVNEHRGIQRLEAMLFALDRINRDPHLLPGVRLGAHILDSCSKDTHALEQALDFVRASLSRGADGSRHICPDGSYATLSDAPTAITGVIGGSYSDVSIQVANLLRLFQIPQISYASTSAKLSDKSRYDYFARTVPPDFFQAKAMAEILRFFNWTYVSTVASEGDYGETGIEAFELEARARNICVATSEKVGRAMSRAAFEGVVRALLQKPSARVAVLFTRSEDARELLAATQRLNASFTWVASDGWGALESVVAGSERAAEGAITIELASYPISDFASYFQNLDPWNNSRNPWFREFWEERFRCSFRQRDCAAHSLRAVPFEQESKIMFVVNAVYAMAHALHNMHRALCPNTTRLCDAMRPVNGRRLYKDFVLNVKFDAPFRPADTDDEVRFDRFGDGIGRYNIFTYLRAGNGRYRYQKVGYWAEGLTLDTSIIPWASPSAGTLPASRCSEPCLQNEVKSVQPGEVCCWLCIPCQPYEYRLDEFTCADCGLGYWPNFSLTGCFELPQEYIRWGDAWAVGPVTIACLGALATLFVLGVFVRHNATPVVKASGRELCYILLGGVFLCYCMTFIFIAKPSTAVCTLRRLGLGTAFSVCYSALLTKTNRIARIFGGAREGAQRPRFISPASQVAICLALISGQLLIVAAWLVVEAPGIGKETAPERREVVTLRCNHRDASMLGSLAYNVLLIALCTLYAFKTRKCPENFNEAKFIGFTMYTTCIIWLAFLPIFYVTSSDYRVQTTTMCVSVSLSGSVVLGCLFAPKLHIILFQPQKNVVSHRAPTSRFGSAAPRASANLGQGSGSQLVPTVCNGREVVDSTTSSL
T1 sequence (Q14BI2 19-872): as the sequence (Q14BI2 19-872 A548F) above, with F530A counted along it
Sequence of mGluR2 (Mus musculus, UniProt Q14BI2, INS715F) (Q14BI2 with tags, fused parts or gaps INS715F): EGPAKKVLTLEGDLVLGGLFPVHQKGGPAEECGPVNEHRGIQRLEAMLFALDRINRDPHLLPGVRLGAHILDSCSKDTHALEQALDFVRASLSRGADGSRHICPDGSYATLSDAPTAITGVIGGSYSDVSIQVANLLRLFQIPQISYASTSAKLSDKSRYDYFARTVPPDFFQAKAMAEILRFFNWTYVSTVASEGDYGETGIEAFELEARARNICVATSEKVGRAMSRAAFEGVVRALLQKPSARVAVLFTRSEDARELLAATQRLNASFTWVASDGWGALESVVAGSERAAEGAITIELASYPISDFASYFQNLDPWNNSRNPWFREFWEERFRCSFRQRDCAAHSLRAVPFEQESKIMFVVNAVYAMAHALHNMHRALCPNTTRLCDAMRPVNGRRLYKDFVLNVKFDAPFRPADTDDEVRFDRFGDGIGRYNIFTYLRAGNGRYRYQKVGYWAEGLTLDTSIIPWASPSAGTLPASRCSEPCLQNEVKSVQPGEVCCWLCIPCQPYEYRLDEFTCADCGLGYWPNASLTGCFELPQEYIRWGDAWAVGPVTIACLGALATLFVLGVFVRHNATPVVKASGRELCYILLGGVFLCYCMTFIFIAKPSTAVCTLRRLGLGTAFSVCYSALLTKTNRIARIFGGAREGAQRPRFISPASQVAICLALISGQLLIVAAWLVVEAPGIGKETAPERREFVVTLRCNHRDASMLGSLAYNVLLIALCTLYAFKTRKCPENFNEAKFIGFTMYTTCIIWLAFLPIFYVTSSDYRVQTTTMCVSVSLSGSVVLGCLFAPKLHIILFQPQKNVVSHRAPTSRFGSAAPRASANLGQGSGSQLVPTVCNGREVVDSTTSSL

SMILES: Clc1cccc(Cl)c1/C(=C/n1cncn1)OC1CCCCCC1 [Ro 64–5229]
- SNAP-m2 - ΔEfficacy, Mean ΔEfficacy (mGluR2 [1]; [5]): -12.5077
- Mean max response (normalized max ΔFRET) (mGluR2 [1]; SNAP-m2, 1 mM glutamate + 10 μM modulator, normalized to 1 mM glutamate): 0.87
- Mean ΔPotency (mGluR2 [1]; SNAP-m2, 10μM modulator, (([modulator + glutamate]EC50 – [glutamate] EC50)/[glutamate] EC50) × 100): 64.9494
- Mean ΔEfficacy (mGluR2 [1]; SNAP-m2, 10μM modulator, ([1 mM glutamate + modulator] - [1 mM glutamate]) × 100): -12.5077
- Hill slope of glutamate titration (mGluR2 [1]; SNAP-m2 sensor, + 10 μM modulator): –1.52
- Mean normalized FRET response, SNAP-m2 NAM DRC (mGluR2 [1]; log[Glutamate] (M) -3): -0.8749
- Mean normalized FRET response, SNAP-m2 NAM DRC (mGluR2 [1]; log[Glutamate] (M) -4.1549): -0.7502
- Mean normalized FRET response, SNAP-m2 NAM DRC (mGluR2 [1]; log[Glutamate] (M) -4.52288): -0.5932
- Mean normalized FRET response, SNAP-m2 NAM DRC (mGluR2 [1]; log[Glutamate] (M) -5): -0.2293
- Mean normalized FRET response, SNAP-m2 NAM DRC (mGluR2 [1]; log[Glutamate] (M) -5.39794): -0.07065
- Mean normalized FRET response, SNAP-m2 NAM DRC (mGluR2 [1]; log[Glutamate] (M) -5.82391): -0.0217
- Mean normalized FRET response, SNAP-m2 NAM DRC (mGluR2 [1]; log[Glutamate] (M) -6.52288): 0
- Mean normalized FRET response, SNAP-m2 NAM DRC (mGluR2 [1]; log[Glutamate] (M) -7): 0
- Mean normalized FRET response, SNAP-m2 NAM DRC (mGluR2 [1]; log[Glutamate] (M) -7.69897): 0
- Mean normalized FRET response, SNAP-m2 NAM DRC (mGluR2 [1]; log[Glutamate] (M) -4.69897): -0.4605
- azi-ECL2 - ΔEfficacy, Mean ΔEfficacy (mGluR2 [2]; [5]): -16.382
- Mean ΔPotency (mGluR2 [2]; 10μM modulator, (([modulator + glutamate]EC50 – [glutamate] EC50)/[glutamate] EC50) × 100): 238.581
- ΔPotency, individual cell responses (mGluR2 [2]; 10μM modulator, single cells, (([modulator + glutamate]EC50 – [glutamate] EC50)/[glutamate] EC50) × 100): 105.749 and 188.087 and 277.044 and 382.546 and 239.476
- ΔEfficacy, individual cell responses (mGluR2 [2]; 10μM modulator, single cells, ([1 mM glutamate + modulator] - [1 mM glutamate]) × 100): -3.67 and -2.778 and -15 and -26.6667 and -29.3756 and -15.3219 and -1.127 and -37.1174
- Mean max response (normalized max ΔFRET) (mGluR2 [2]; azi-ECL2, 1 mM glutamate + 10 μM modulator, normalized to 1 mM glutamate): 0.84
- Hill slope of glutamate titration (mGluR2 [2]; azi-ECL2 sensor, + 10 μM modulator): 1.07
- Live-cell FRET max response normalized to 1mM glutamate (mGluR2 [2]; azi-ECL2 sensor, Glutamate + 10μM Ro 64-5229, individual values (N=8)): 0.7062 and 0.8468 and 0.9887 and 0.6288 and 0.9633 and 0.9722 and 0.85 and 0.7333
- Mean normalized azi-ECL2 FRET response (mGluR2 [2]; log[Glutamate] (M) -3): 0.8362
- Mean normalized azi-ECL2 FRET response (mGluR2 [2]; log[Glutamate] (M) -4.1549): 0.6516
- Mean normalized azi-ECL2 FRET response (mGluR2 [2]; log[Glutamate] (M) -4.52288): 0.5392
- Mean normalized azi-ECL2 FRET response (mGluR2 [2]; log[Glutamate] (M) -5): 0.3248
- Mean normalized azi-ECL2 FRET response (mGluR2 [2]; log[Glutamate] (M) -5.39794): 0.1335
- Mean normalized azi-ECL2 FRET response (mGluR2 [2]; log[Glutamate] (M) -5.82391): 0.04706
- Mean normalized azi-ECL2 FRET response (mGluR2 [2]; log[Glutamate] (M) -6.52288): 0
- Mean normalized azi-ECL2 FRET response (mGluR2 [2]; log[Glutamate] (M) -7): 0
- Mean normalized azi-ECL2 FRET response (mGluR2 [2]; log[Glutamate] (M) -7.69897): 0
- Mean normalized azi-ECL2 FRET response (mGluR2 [2]; log[Glutamate] (M) -4.69897): 0.5381
- azi-CRD - ΔEfficacy, Mean ΔEfficacy (mGluR2 [3]; [5]): -41.4006
- azi-CRD - ΔEfficacy, individual cell responses (mGluR2 [3]; 10μM Ro 64-5229, single cells): -28.0702 and -27.0053 and -21.7759 and -17.8571 and -54.2848 and -56.1085 and -49.8998 and -39.7625 and -52.6646 and -45.8685 and -32.6644 and -42.4305 and -51.9931 and -35.5526 and -41.2702 and -37.27 and -50.0412 and -60.6915
- azi-CRD normalized FRET response, Mean (mGluR2 [3]; log[Glutamate] (M) -3): 0.586
- azi-CRD normalized FRET response, individual cell (mGluR2 [3]; log[Glutamate] (M) -3): 0.586
- azi-CRD normalized FRET response, Mean (mGluR2 [3]; log[Glutamate] (M) -4.1549): 0.5093
- azi-CRD normalized FRET response, individual cell (mGluR2 [3]; log[Glutamate] (M) -4.1549): 0.5346 and 0.4622 and 0.5203 and 0.5084 and 0.5826 and 0.5517 and 0.4974 and 0.5062 and 0.5143 and 0.4926 and 0.4963 and 0.4643 and 0.4905
- azi-CRD normalized FRET response, Mean (mGluR2 [3]; log[Glutamate] (M) -4.52288): 0.3977
- azi-CRD normalized FRET response, individual cell (mGluR2 [3]; log[Glutamate] (M) -4.52288): 0.3335 and 0.3611 and 0.3991 and 0.4165 and 0.5072 and 0.4352 and 0.378 and 0.3755 and 0.3785 and 0.4157 and 0.3821 and 0.3693 and 0.4189
- azi-CRD normalized FRET response, Mean (mGluR2 [3]; log[Glutamate] (M) -5): 0.2248
- azi-CRD normalized FRET response, individual cell (mGluR2 [3]; log[Glutamate] (M) -5): 0.1496 and 0.3033 and 0.2652 and 0.2455 and 0.317 and 0.2125 and 0.1682 and 0.183 and 0.1871 and 0.1831 and 0.172 and 0.2951 and 0.2409
- azi-CRD normalized FRET response, Mean (mGluR2 [3]; log[Glutamate] (M) -5.39794): 0.1255
- azi-CRD normalized FRET response, individual cell (mGluR2 [3]; log[Glutamate] (M) -5.39794): 0.1184 and 0.1898 and 0.1288 and 0.1204 and 0.1285 and 0.1251 and 0.1085 and 0.1183 and 0.1305 and 0.09889 and 0.1192 and 0.1155 and 0.1302
- azi-CRD normalized FRET response, Mean (mGluR2 [3]; log[Glutamate] (M) -5.82391): 0.06192
- azi-CRD normalized FRET response, individual cell (mGluR2 [3]; log[Glutamate] (M) -5.82391): 0.04987 and 0.1052 and 0.0682 and 0.05385 and 0.04969 and 0.05654 and 0.05788 and 0.05365 and 0.05774 and 0.05311 and 0.05405 and 0.04746 and 0.09767
- azi-CRD normalized FRET response, Mean (mGluR2 [3]; log[Glutamate] (M) -6.52288): 0.03074
- azi-CRD normalized FRET response, individual cell (mGluR2 [3]; log[Glutamate] (M) -6.52288): 0.03117 and 0.03301 and 0.02778 and 0.02217 and 0.02741 and 0.0634 and 0.03617 and 0.02751 and 0.02353 and 0.01178 and 0.01113 and 0.04333 and 0.04124
- azi-CRD normalized FRET response, Mean (mGluR2 [3]; log[Glutamate] (M) -7): 0
- azi-CRD normalized FRET response, individual cell (mGluR2 [3]; log[Glutamate] (M) -7): 0
- Hill slope of glutamate titration (mGluR2 [3]; azi-CRD sensor, + 10 μM modulator): 1.05
- Live-cell FRET max response normalized to 1mM glutamate (mGluR2 [3]; azi-CRD sensor, Glutamate + 10μM Ro 64-5229, individual values (N=18)): 0.4572 and 0.4389 and 0.501 and 0.6024 and 0.4733 and 0.5413 and 0.6734 and 0.5757 and 0.4801 and 0.6445 and 0.5873 and 0.6273 and 0.4996 and 0.3931 and 0.7193 and 0.7299 and 0.7822 and 0.8214
- Mean max response (normalized max ΔFRET) (mGluR2 [3]; azi-CRD, 1 mM glutamate + 10 μM modulator, normalized to 1 mM glutamate): 0.59
- Mean ΔPotency (mGluR2 [3]; azi-CRD, 10μM modulator, (([modulator + glutamate]EC50 – [glutamate] EC50)/[glutamate] EC50) × 100): 46.1673
- ΔPotency, individual cell (mGluR2 [3]; azi-CRD, 10μM modulator, calculated from individual cell responses): 111.788 and 54.4953 and 84.4604 and 80.2661 and 72.5435 and 46.8592 and 26.2598 and 27.1246 and 2.91 and 18.4766 and 20.2062 and -17.7582
- Effect on receptor activation (calcium imaging) in the presence of glutamate (mGluR2 [4]; 10 μM NAM): block receptor activation
- Intracellular Ca2+ Response, % 1mM Glutamate (mGluR2 [4]; 1mM Glutamate + 90nM Ro 64-5229, individual experiments): 79.692% and 78.096% and 66.28%
- Mean ΔEfficacy of glutamate (mGluR2 [4]; Ca2+ response, 1 mM glutamate + 90 nM modulator, ([1 mM glutamate + modulator] - [1 mM glutamate]) × 100): -25.3109
- ΔEfficacy of glutamate, individual experiments (mGluR2 [4]; Ca2+ response, 1 mM glutamate + 90 nM modulator, single replicate): -21.9043 and -33.7198 and -20.3084
- Mean ΔPotency of glutamate (mGluR2 [4]; Ca2+ response, glutamate + 90 nM modulator, (([modulator + glutamate]EC50 – [glutamate]EC50)/[glutamate]EC50) × 100): 160.286
- ΔPotency of glutamate, individual experiments (mGluR2 [4]; Ca2+ response, glutamate + 90 nM modulator, single replicate): 46.8661 and 141.491 and 292.502
- Intracellular Ca2+ Response (normalized to 1mM glutamate), Mean (mGluR2 [4]; log[Glutamate] (M) -3): 0.7469
- Intracellular Ca2+ Response (normalized to 1mM glutamate), Mean (mGluR2 [4]; log[Glutamate] (M) -3.60206): 0.7222
- Intracellular Ca2+ Response (normalized to 1mM glutamate), Mean (mGluR2 [4]; log[Glutamate] (M) -4.1549): 0.5737
- Intracellular Ca2+ Response (normalized to 1mM glutamate), Mean (mGluR2 [4]; log[Glutamate] (M) -4.52288): 0.2233
- Intracellular Ca2+ Response (normalized to 1mM glutamate), Mean (mGluR2 [4]; log[Glutamate] (M) -5): 0.1471
- Intracellular Ca2+ Response (normalized to 1mM glutamate), Mean (mGluR2 [4]; log[Glutamate] (M) -5.39794): 0
- Intracellular Ca2+ Response (normalized to 1mM glutamate), Mean (mGluR2 [4]; log[Glutamate] (M) -5.82391): 0
- Intracellular Ca2+ Response (normalized to 1mM glutamate), Mean (mGluR2 [4]; log[Glutamate] (M) -6.52288): 0
- Intracellular Ca2+ Response (normalized to 1mM glutamate), Mean (mGluR2 [4]; log[Glutamate] (M) -7): 0
